Laboratory results from patent publication US20230201323A1, “VACCINE FORMULATIONS” (EUUALY S.A., priority 2020, published 2023).
Where a SMILES comes first, the peptide text is derived from it.

Tests used:
C57BL/6 female mice = test system: C57BL/6 female mice
Method: C57BL/6 female mice are treated with an injection of 100 μl containing 200 μg of peptide encompassing amino acid residues […], namely:
and 100 μl of complete Freund's adjuvant. In addition, […] of pertussis toxin is administered intraperitoneally on days 0 and 2 to permeate the blood-brain barrier.
One month after the date of disease induction, the spinal cord is examined for inflammatory infiltrates. Tissues are fixed in formaldehyde and stained with hematoxilin-eosin for cell counting. T cells are identified using an anti-CD3 antibody. Demyelination is detected by staining with Luxol Fast Blue (LFB).
To establish that cells of the present invention exert a suppressive effect on pathogenic T cells, two group of C57BL/6 female mice was treated by 4 weekly subcutaneous injections of 100 μg of peptide
corresponding to peptide of SEQ ID NO:5 but containing a redox motif (in bold). These injections were made with a formulation containing aluminum hydroxide as adjuvant.
A second group of mice immunized with peptide of SEQ ID NO:6 was then treated as in the positive control group, namely peptide of SEQ ID:5 with complete Freund's adjuvant and pertussis toxin.

wildtype C57BL/6 mice = test: IV transfer of peptide-elicited CD4+ T cells into wildtype C57BL/6 mice, spinal cord examination; type: in vivo; conditions: 10^6 peptide-elicited CD4+ T cells per mouse IV, spinal cord ten days afterwards
Method: Such cells are then administered by IV injection in wildtype C57BL/6 mice (10^6 cells per mouse). Ten days afterwards, mice are sacrificed and the spinal cord isolated.
In a control experiment, 10^6 cells are administered by IV injection in wildtype C57BL/6 mice.

[1] = test system: AQP4-specific CD4+ T cells; test: Phenotype of CD4+ T cells from AQP4 KO C57BL/6 mice immunized with AQP4 peptide; type: in vivo
Method: The C57BL/6 (H-2b) strain is the elective animal model as its natural repertoire of CD4+ T cells contains cells activable by immunisation with AQP4 epitopes whose sequences are entirely superposable to those activating human CD4+ T cells. Besides, the homology between human and mouse AQP4 is 93%. However, due to natural tolerance to AQP4, it remains difficult to generate T cells with a pathogenic potential. Therefore, C57BL/6 mice lacking expression of AQP4 (AQP4 KO) are used.
is used at 100 μg emulsified in complete Freund's adjuvant to immunize AQP4 KO C57BL/6 mice in the footpad, followed by 3 injections of 100 μg in incomplete Freund's adjuvant at 10-days intervals. Four weeks after the last injection, the mice are sacrificed and splenocytes are prepared. After separation of CD4+ T cells from the bulk splenocytes, lymphocytes specific for peptide of SEQ ID NO:1 are isolated by incubation with magnetic beads coated with class II (H2b) molecules loaded with peptide of SEQ ID NO:1.
AQP4-specific CD4+ T cells are then phenotyped and found to belong to the Th17 subtype.
A similar experiment is carried out in AQP4 KO C57BL/6 mice immunized with the same peptide, but containing a redox motif (in bold) in its flanking residues (SEQ ID NO:2), and with alum instead of CFA/IFA

[2] = test system: Thy1.1 CD4+ T cells obtained by immunisation with peptide of SEQ ID NO:1; test: Mixed culture of Thy1.1 and Thy1.2 CD4+ T cells on antigen-presenting cells loaded with peptide of SEQ ID NO:1; type: cell-based, C57BL/6 mice; conditions: 1/1 mixture with Thy1.2 CD4+ T cells elicited by SEQ ID NO:2, 7 days of culture
Method: Next, to determine whether CD4+ T cells obtained by immunisation with peptide of SEQ ID NO:2 could suppress pathogenic CD4+ T cells obtained by immunisation with peptide of SEQ ID NO:1, mixed cultures were performed with antigen-presenting cells loaded with peptide of SEQ ID NO:1. For such in vitro experiments, the two CD4+ T cell populations were obtained from C57BL/6 mice expressing either the Thy1.1 or the Thy1.2 surface phenotypic marker, identified by specific antibodies.
Dendritic cells converted from peripheral blood monocytes were used as antigen-presenting cells. Thus, 50×10^6 cells were incubated with 10 μg of peptide of SEQ ID NO:1 for 16 h at room temperature, washed and then incubated with a 1/1 mixture of Thy1.1 CD4+ T cells obtained by immunisation with peptide of SEQ ID NO:1 and Thy1.2 CD4+ T cells obtained by immunisation with peptide of SEQ ID NO:2. The phenotype of each CD4+ T cell population was then evaluated after 7 days of culture.

[3] = test system: CD4+ obtained from the spleen of mice immunized with peptide of SEQ ID NO:3; test: Co-culture of CFSE-labelled CD4+ cells (SEQ ID NO:3) with CD4+ T cells from mice immunized with SEQ ID NO:4; type: cell-based, NOD mice
NOD mice = test: Insulitis by pancreas histology in immunized NOD mice; type: in vivo; conditions: female NOD mice, 100 μg in aluminium hydroxide four times at a week interval from six weeks old, histology at week 15
Excerpt: Non-obese diabetes (NOD) mice are the most used animal model for diabetes due to the spontaneous development of insulitis, hyperglycaemia and diabetes in a context wherein both inflammation and auto-immunity play determining roles. The local lesion, insulitis, starts accumulating after a few weeks, so that therapeutic interventions should be considered as suppressive rather than preventive.
Six-weeks old female NOD mice are immunized with a peptide made of a class II-restricted T cell epitope of GAD65 (319-333: ILEVKQKGFVPFLVS, SEQ ID NO:3) or with the same peptide containing a redox motif (bold figures) in its flanking residues
Immunisation is carried out using 100 μg of peptide of SEQ ID NO:4 in aluminium hydroxide, four times at a week interval. Control mice receive peptide of SEQ ID NO:3 according to the same injection schedule.
Mice are then sacrificed at week 15, the pancreas is isolated and evaluated by histology to identify insulitis.

CD4+ T cells = test: Phenotype and cytokine production of Balb/c CD4+ T cells expanded in vitro with Staph. aureus nuclease peptides; type: cell-based, Balb/c mice; conditions: after 2 cycles of stimulation on peptide-loaded antigen-presenting cells
Method: Balb/c mice kept under open conditions (not pathogen-free) show specific antibodies and CD4+ T cells towards Staph. aureus nuclease. Splenocytes are obtained from such mice to prepare CD4+ T cells. Such cells are cultured and expanded in the presence of antigen-presenting cells loaded with either peptide of sequence
After 2 cycles of stimulation, the phenotype and cytokine production of cells are examined. […] Other markers of CD4+ T cells with an immune suppressive function include DLL4 (Rubey et al. Diabetes 2020 69(5):915-926, CTLA2 (Sugita et al. J Immunol 2009 183(8):5013-22), TGF-beta2 (Mir et al. Immunology 2015 146(4):547-56, arginase (Khoshnejad et al. Mol Ther Methods Clin Dev 2020 18:652-663 and meteorin (Baht et al. Nat Metab 2020 2(3):278-289)

[4] = test system: cells obtained by stimulation with peptide of SEQ ID NO:7; test: Coculture of CFSE-labelled SEQ ID NO:7 cells with SEQ ID NO:8 cells, proliferation by CFSE dilution; type: cell-based, Balb/c mice
Method: Cells obtained by stimulation with peptide of SEQ ID NO:7 were labelled with CFSE and cultured together with cells obtained with peptide of SEQ ID NO:8 at a 1 to 1 ratio on antigen-presenting cells loaded with peptide of SEQ ID NO:7.
After 7 days of coculture, the proliferation of cells was measured by CFSE dilution.

[5] = AQP4 KO C57BL/6 mice immunized with peptide in alum

CC[C@H](C)[C@H](NC(=O)CNC(=O)[C@@H](NC(=O)[C@H](CS)NC(=O)[C@@H]1CCCN1C(=O)[C@H](Cc1ccc(O)cc1)NC(=O)[C@H](CS)NC(=O)[C@@H](N)Cc1c[nH]cn1)[C@@H](C)O)C(=O)N[C@@H](CC(C)C)C(=O)N[C@@H](CC(=O)O)C(=O)N[C@@H](CO)C(=O)N[C@H](C(=O)NCC(=O)N[C@@H](CCCNC(=N)N)C(=O)N[C@@H](Cc1ccccc1)C(=O)N[C@@H](Cc1ccccc1)C(=O)N[C@@H](CO)C(=O)NCC(=O)O)[C@@H](C)CC [SEQ ID NO:6, HCYPCTGILDSIGRFFSG] (H-HCYPCTGILDSIGRFFSG-OH)
signs of disease after immunisation alone (C57BL/6 female mice; 4 weekly subcutaneous injections of 100 μg with aluminum hydroxide, no disease induction): no signs of disease

TGILDSIGRFFSG (MBP) [SEQ ID NO:5]
demyelination by Luxol Fast Blue (LFB) staining (C57BL/6 female mice; SEQ ID NO:5 = disease induction, SEQ ID NO:6 = 4 weekly sc 100 μg in aluminum hydroxide before induction): signs of demyelination
T lymphocyte / inflammatory infiltrates in the spinal cord (C57BL/6 female mice; hematoxilin-eosin and anti-CD3, SEQ ID NO:5 = disease induction, SEQ ID NO:6 = 4 weekly sc 100 μg in aluminum hydroxide before induction): significant infiltrates including T lymphocytes

HCPYCSIMVAFKGVWTQAFWKAV (AQP4redox; (9)..(20) core epitope) [SEQ ID NO:2, same AQP4 peptide containing a redox motif in its flanking residues]
spinal cord inflammatory lesions / infiltration (wildtype C57BL/6 mice): no inflammatory lesions or T lymphocytes
factors produced by CD4+ T cells obtained from the spleen [1, 5]: PGE2 (prostaglandin E2) and IL-10
markers characterizing CD4+ T cells obtained from the spleen [1, 5]: TIGIT and CTLA2
phenotype of Thy1.1 CD4+ T cells (SEQ ID NO:1-elicited) in mixed culture [2]: lost their phenotypic characteristics of Th17 cells
proliferation of Thy1.1 CD4+ T cells (SEQ ID NO:1-elicited) in mixed culture [2]: no proliferation

HCYPCILEVKQKGFVPF (GAD65redox) [SEQ ID NO:4]
capacity of recovered CFSE-labeled cells to proliferate upon presentation of cognate epitope (SEQ ID NO:3) ([3]; cells recovered from co-culture with SEQ ID NO:4-elicited CD4+ T cells): lost their capacity to proliferate
reduction in numbers of CFSE-labelled CD4+ cells (SEQ ID NO:3) by co-culture ([3]; co-culture with CD4+ T cells from spleen of mice immunized with SEQ ID NO:4): circa 5%
islets with no sign of inflammation or cellular infiltrate (NOD mice): > 70%

NTHEQHLRKS (Sa Nuclease) [SEQ ID NO:7, Staph. aureus nuclease peptide, no redox motif, reference compound]
cytokine production of cells obtained by stimulation (CD4+ T cells): interferon gamma (IFN-γ)
phenotype of cells obtained by stimulation (CD4+ T cells): characteristics of Th1 cells

SIMVAFKGVWTQAFWKAV (AQP4 epitope; (4)..(15) core epitope) [SEQ ID NO:1, peptide encompassing amino acid residues 21-38 of AQP4, no redox motif, reference compound]
spinal cord inflammatory lesions / infiltration (wildtype C57BL/6 mice): Infiltration with inflammatory cells, including AQP4-specific CD4+ T cells is observed
subtype of AQP4-specific CD4+ T cells ([1]; AQP4 KO C57BL/6 mice, 100 μg in CFA then 3 x 100 μg in IFA, splenocytes four weeks after last injection): Th17 subtype

HCYPCHNTHEQHLRKS (Sa Nucleaseredox) [SEQ ID NO:8, Staph. aureus nuclease peptide containing a redox motif]
proliferation of SEQ ID NO:7-obtained cells in presence of SEQ ID NO:8-obtained cells (CFSE dilution) ([4]; 1 to 1 ratio, antigen-presenting cells loaded with SEQ ID NO:7, 7 days of coculture): do not proliferate
phenotype of SEQ ID NO:8-obtained cells after coculture ([4]; 7 days of coculture on antigen-presenting cells loaded with SEQ ID NO:7): unchanged phenotype
cytokine production of cells obtained by stimulation (CD4+ T cells): IL-4, IL-10, IL-13 and amphiregulin (AREG)
surface expression on cells obtained by stimulation (CD4+ T cells): TIGIT and BLIMP-1

ILEVKQKGFVPFLVS (GAD65 epitope) [SEQ ID NO:3, reference compound]
islets with no sign of inflammation or cellular infiltrate (NOD mice): the reverse
